Data on 20 compounds can be found in PubChem BioAssay (NCI).

Experiment in all cases: NCI tumour cell line growth inhibition, 48 h
The test system of experiment [1] is COLO 205 colon.
For experiment [2], the system named is HCC-2998 colon.
Experiment [3] deals with HCT-15 colon.
Experiment [4] has as its system IGROV1 ovarian.
In experiment [5] the test system is MALME-3M melanoma.
Experiment [6] has as its system SF-295 CNS.
Experiment [7] deals with SK-MEL-5 melanoma.
The test system of experiment [8] is SN12C renal.
In experiment [9] the test system is TK-10 renal.
Experiment [10] concerns UO-31 renal.

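Cultured in 96-well plates, cells were exposed to test compound for 48 hours across five concentrations. GI50: concentration for 50% inhibition of growth. At the TGI there is no net growth.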 Some results are limits rather than exact numbers.

Take `O=C(O)c1cc(N=Cc2ccccc2O)cc(C(=O)O)c1`: the TGI in experiment [1], in experiment [2], in [3], in [4], in experiment [5] and in [6] was more than 100 µM each time. The TGI in experiment [7], in experiment [8], in experiment [9] and in experiment [10] was more than 100 µM each time.
`NS(=O)(=O)c1cccc(N=Cc2c(O)[nH]c3ccccc23)c1`: the GI50 in [1] was more than 25 µM; in experiment [2] it was more than 25 µM; in [3], more than 25 µM; in [4], more than 20.2 µM; in experiment [5], more than 25 µM; in [6], more than 25 µM. The GI50 in experiment [7] was more than 25 µM; in experiment [8] it was more than 25 µM; in experiment [9], more than 17.7 µM; in [10], more than 22.7 µM. For the same compound, the TGI in experiment [1], in [2], in experiment [3], in experiment [4], in [5] and in experiment [6] was more than 25 µM each time. The TGI in experiment [7], in experiment [8], in experiment [9] and in experiment [10] was more than 25 µM in each case.
In the case of `Cc1ccc2c(c1)NC(=O)CC(c1ccccc1)=N2`, the TGI in [2], in experiment [3], in experiment [4], in experiment [5], in experiment [6] and in experiment [7] was more than 100 µM in each case. In addition, the TGI in experiment [8], in [9] and in [10] was more than 100 µM each time.
Turning to `COc1ccc(C(=O)c2cc3c(OC)c(OC)c(OC)cc3[nH]2)cc1`, the GI50 is 3.45 µM in experiment [1]; 3.8 µM in experiment [2]; 2.23 µM in experiment [3]; 9.68 µM in experiment [4]; 5.8 µM in [5]; 6.72 µM in experiment [6]. The GI50 in experiment [7] was 2.2 µM; in experiment [8], 5.21 µM; in [9], 39.6 µM; in experiment [10], 6.19 µM. For the same compound, the TGI in experiment [1], in experiment [2], in experiment [3], in experiment [4], in [5] and in experiment [6] was more than 100 µM each time. The TGI in experiment [7] was 5.62 µM; in experiment [8] it was more than 100 µM; in experiment [9], more than 100 µM; in experiment [10], more than 100 µM.
In the case of `COc1cccc2c1C(=O)c1c(O)c3c(c(O)c1C2=O)C[C@@](O)(C(=O)CO)C[C@@H]3OC1C[C@H](N)[C@H](O)[C@H](C)O1` (stereo partly specified), the GI50 in experiment [1] was 0.0904 µM; in [2], 0.0678 µM; in experiment [3], 0.906 µM; in experiment [4], 0.0901 µM; in [5], 0.0462 µM; in experiment [6], 0.0371 µM. In addition, the GI50 was 0.0368 µM in experiment [7], 0.0253 µM in [8], 0.177 µM in experiment [9] and 0.152 µM in experiment [10]. Besides, the TGI in experiment [1] was 0.446 µM; in experiment [2] it was 0.34 µM; in experiment [3], more than 50 µM; in experiment [4], 8.58 µM; in [5] it was 0.145 µM; in [6] it was 0.372 µM. The TGI was found to be 0.104 µM in [7], 7.44 µM in experiment [8] and 1.14 µM in [10].
As to `CCN(CCCl)CCCNc1c2ccccc2nc2ccc(OC)cc12`, the TGI in experiment [1] stood at 1.12 µM; in experiment [3] it was 1.86 µM; in experiment [4] it was 1510 µM; in [10] it was 2060 µM. The GI50 in experiment [2] was 436 µM; in [5], 754 µM; in experiment [6], 308 µM; in experiment [7], 626 µM; in experiment [8], 274 µM; in experiment [9] it was 872 µM.
For the compound `c1ccc2c(c1)[nH]c1cnc3c4cccnc4[nH]c3c12`, the TGI came to 30.3 µM in [1]; 34.5 µM in experiment [2]; 31.9 µM in experiment [3]; 40.1 µM in experiment [4]; 49 µM in [5]; 49.8 µM in experiment [6]. Besides, the TGI was 39.9 µM in experiment [7], 34.1 µM in [8], 26.1 µM in experiment [9] and 33 µM in experiment [10].
`Cc1ccc2c(O)c(O)cc(NC(C)CCCN)c2n1` (stereo unspecified): the GI50 is 3.39 µM in experiment [1]; 9.11 µM in [2]; more than 79.1 µM in experiment [3]; 14.2 µM in experiment [4]; 18.7 µM in experiment [5]; more than 48 µM in [6]. In addition, the GI50 is 9.38 µM in experiment [7], 3.89 µM in experiment [8], more than 100 µM in experiment [9] and 7.77 µM in experiment [10]. In addition, the TGI in experiment [1] is 42.5 µM; in experiment [2], more than 51.5 µM; in [3] it was more than 100 µM; in [4], 47.7 µM; in experiment [5], 41.6 µM; in [6], more than 74.2 µM. Besides, the TGI in [7] is 25.3 µM; in experiment [8], 24.8 µM; in experiment [9], more than 100 µM; in experiment [10] it was 43 µM.
On to `O=C1CN(C(=O)c2ccccc2)Cc2[nH]c3ccccc3c21`, for which the TGI in experiment [1], in experiment [2], in [3], in experiment [4], in experiment [5] and in experiment [6] was more than 100 µM in each case. The TGI in experiment [7], in experiment [8], in experiment [9] and in [10] was more than 100 µM each time.
As for `Cc1cc(C)c(O)c(CN(C)Cc2cc(Cl)cc(Cl)c2O)c1`, the GI50 in [1] is 4.99 µM; in [2], 4.8 µM; in experiment [3], 3.41 µM; in [4], 2.2 µM; in experiment [5] it was 6.13 µM; in experiment [6], 2.18 µM. Also, the GI50 in experiment [7] is 5.57 µM; in [8] it was 4.81 µM; in experiment [9], 4.95 µM; in experiment [10], 1.64 µM. For the same compound, the TGI is 15.3 µM in experiment [1]; 17.4 µM in experiment [2]; 16.8 µM in experiment [3]; 8.85 µM in experiment [4]; 20.6 µM in [5]; 6.18 µM in experiment [6]. Moreover, the TGI in experiment [7] came to 18.2 µM; in experiment [8], 20.4 µM; in experiment [9], 25.6 µM; in experiment [10] it was 6.58 µM.
With `N#CCc1ncc(-c2ccc(C(F)(F)F)cc2)c(NC2CCCCCC2)n1`, the GI50 in experiment [1], in [2], in experiment [3], in [4], in experiment [5] and in experiment [6] was more than 10 µM throughout. For the same compound, the GI50 in experiment [7], in experiment [8], in experiment [9] and in experiment [10] was more than 10 µM each time. The TGI in experiment [1], in [2], in experiment [3], in experiment [4], in experiment [5] and in [6] was more than 10 µM in each case. The TGI in [7], in experiment [8], in experiment [9] and in [10] was more than 10 µM each time.
With `CCCCOC(=O)NC(=O)c1cn(CCSCCOC(=O)NCCCCCCNC(=O)OCCSCCn2cc(C(=O)NC(=O)OCCCC)c(=O)[nH]c2=O)c(=O)[nH]c1=O`, the TGI in [1] was more than 100 µM; in experiment [2], more than 100 µM; in experiment [3], more than 100 µM; in experiment [4], more than 100 µM; in experiment [5] it was 76.6 µM; in [6], more than 100 µM. For the same compound, the TGI in experiment [7] was more than 100 µM; in experiment [8], more than 100 µM; in [9], 92.4 µM; in experiment [10] it was more than 100 µM.
On to `O=C(OCC1CO1)c1cccs1` (stereo unspecified), for which the TGI in experiment [1], in experiment [2], in experiment [3], in experiment [4], in experiment [5] and in [6] was more than 100 µM each time. Further, the TGI in experiment [7], in experiment [8], in experiment [9] and in experiment [10] was more than 100 µM in each case.
For the compound `C=CC(=O)N[C@H]1CCOC[C@H]1Nc1ncc2cc(-c3c(Cl)c(OC)cc(OC)c3Cl)ccc2n1`, the GI50 was 13.8 µM in [1]; 32.7 µM in experiment [2]; 7.89 µM in experiment [3]; 23.7 µM in experiment [4]; 13.1 µM in experiment [5]; 16 µM in experiment [6]. Also, the GI50 in [7] was 7.06 µM; in [8], 16.2 µM; in experiment [9] it was 31.8 µM; in experiment [10], 4.28 µM. For the same compound, the TGI in [1] was 29.5 µM; in experiment [2], more than 100 µM; in experiment [3] it was 84.4 µM; in experiment [4], more than 100 µM; in experiment [5] it was 64 µM; in experiment [6], more than 100 µM. Further, the TGI in experiment [7] was 20.9 µM; in experiment [8], more than 100 µM; in [9], more than 100 µM; in [10] it was more than 100 µM.
For the compound `O=C(O)c1cc2cc(OCc3ccccc3)c(OCc3ccccc3)cc2[nH]1`, the GI50 in [1] is 19.9 µM; in experiment [2], 18.7 µM; in experiment [3] it was 16.3 µM; in [4], 24.9 µM; in experiment [5], 25.9 µM; in experiment [6], 17.6 µM. For the same compound, the GI50 is 20.1 µM in experiment [7], 33.1 µM in experiment [8], 24 µM in experiment [9] and 13.8 µM in experiment [10]. Also, the TGI was 36.1 µM in experiment [1]; 34.7 µM in experiment [2]; 36.4 µM in experiment [3]; 54.2 µM in [4]; 72.6 µM in [5]; 40.1 µM in experiment [6]. Further, the TGI was 47.3 µM in experiment [7], more than 100 µM in experiment [8], 70.6 µM in [9] and 27.6 µM in [10].
As to `Cc1cccc(C2=NC(C)(C)C(C)(C)N=C2c2cccc(C)n2)n1`, the TGI in experiment [1], in [2], in [3], in experiment [4], in experiment [5] and in experiment [6] was more than 100 µM each time. Moreover, the TGI in experiment [7], in experiment [9] and in [10] was more than 100 µM each time.
With `CN1CC(C(=O)C2C(=O)c3ccccc3C2=O)C(=O)C(=O)C(C(=O)C2C(=O)c3ccccc3C2=O)C1` (stereo unspecified), the TGI in experiment [1], in [2], in [3], in [4], in [5] and in [6] was more than 100 µM in each case. Further, the TGI in experiment [8], in [9] and in experiment [10] was more than 100 µM each time.
As to `CSc1ccc2c3c(n(C[C@H](O)CO)c(=O)c2c1)-c1ccccc1C3=O`, the GI50 in experiment [1] is 2.94 µM; in [2], 3.32 µM; in experiment [4], 3.77 µM; in experiment [5], 4.3 µM; in [6], 2.82 µM; in [7], 1.75 µM. The GI50 in [8] is 1.94 µM; in [9] it was 4.76 µM; in [10], 1.53 µM. Further, the TGI in experiment [1] worked out at 21.1 µM; in experiment [2], 18 µM; in experiment [4], 85.3 µM; in experiment [5], 22 µM; in experiment [6], 12 µM; in experiment [7], 3.76 µM. The results for the TGI in experiment [8], in experiment [9] and in experiment [10] were 13.6 µM, 37.5 µM and 8.94 µM, respectively.
In the case of `CCOC(=O)C(=Cc1ccc(C(=O)OC)cc1)C(=O)OCC`, the TGI was 3.59 µM in [1]; 12.1 µM in [2]; 6.76 µM in experiment [3]; 7.73 µM in experiment [4]; 3.52 µM in experiment [5]; 19.2 µM in experiment [6]. Also, the results for the TGI in experiment [7], in experiment [8] and in experiment [9] were 4.64 µM, 5 µM and 7.34 µM, respectively.
Take `CC1=CCC23C(C1)OC(Br)(C=CC2(C)O)C3(C)C` (stereo unspecified): the TGI in [1], in experiment [2], in experiment [4], in experiment [5], in experiment [6] and in experiment [7] was more than 100 µM each time. Moreover, the TGI in experiment [8] and in experiment [9] was more than 100 µM each time.
